Entries after “also recorded” stand apart in the source; their conditions may differ.
Legend:
OSM = target: T1, OSM (Homo sapiens, UniProt P13725); experiment: Fluorescence quenching assay of SMI binding to OSM; settings: average of three independent replicates, errors at 95% confidence level, read-out: KD (OSM-SMI dissociation constant)
T1 sequence (P13725 26-252): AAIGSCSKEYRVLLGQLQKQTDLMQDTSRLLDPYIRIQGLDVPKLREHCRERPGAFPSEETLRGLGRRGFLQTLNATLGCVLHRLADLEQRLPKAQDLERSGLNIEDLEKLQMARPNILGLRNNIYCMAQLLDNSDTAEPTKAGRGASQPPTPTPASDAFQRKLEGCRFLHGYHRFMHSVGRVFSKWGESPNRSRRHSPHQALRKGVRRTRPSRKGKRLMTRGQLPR
Method: To perform fluorescence quenching assays, 2 mL of 1 μM OSM solution in polymethylmethacrylate cuvettes was prepared by dilution of a concentrated stock solution of recombinant OSM with buffer solution (100 mM sodium chloride, 50 mM sodium phosphate, 50 mM freshly added DTT, pH = 6.6). Cuvettes were titrated with 5 μL increments of a 1 mM small molecule stock solution in DMSO, with a cuvette titrated with an equivalent volume of DMSO as a control. […] In cases where little to no significant quenching was observed, the titration was supplemented with 2.5 μL increments of a 10 mM small molecule stock solution to increase the concentration delivered. The fluorescence intensity measurements were obtained on a Cary Eclipse spectrofluorometer equipped with a Xenon arc lamp. Fluorescence intensities were measured by exciting at 280 nm (4 nm slit width) and recording the emission from 345 to 355 nm with a photomultiplier tube voltage of 700 V, unless otherwise noted. Each titration point was normalized to OSM’s native fluorescence intensity, corrected by adding the decrease in fluorescence intensity caused by dilution with DMSO, and the average value of the three replicates for each point was plotted against concentration of small molecule delivered and fit to a modified Stern–Volmer function as described by Charlier and Plapp. Binding affinity (K D) values were obtained […] from the fitting routine. All curve-fitting analysis was performed in GraphPad Prism 8.0.

[1] = system: OSM-induced pSTAT3 in T47D human breast cancer cells; experiment: pSTAT3 ELISA in T47D cells treated with OSM ± SMI; format: cell-based; settings: T47D, 30 min; for Relative pSTAT3 Levels (Table 1, SMI-10A-10J): SMI 10 μM + OSM 10 ng/mL, ELISA, relative to +OSM, no-treatment blank subtracted; for Inhibition of OSM-induced pSTAT3 via ELISA: SMI 10 μM, OSM 10 ng/mL
Method: (§1) To test the effect of SMIs in vitro, each SMI was incubated with OSM for a period of 1 h at 37 °C, and T47D and MDA-MB-231 human breast cancer cell lines were subsequently treated with OSM (10 ng/mL) and/or SMI-10 (10 μM) analogs for 30 min and measured for pSTAT3 levels via ELISA. The results of these assays are presented graphically in Figure and, for T47D cells, in Table as a percentage of reduction from +OSM alone. For phospho-STAT3 (pSTAT3) ELISAs, T47D MDA-MB-231, and MCF-7 cells were seeded in 12- or 24-well plates at 70–75% confluency and allowed to adhere overnight, after which cells were serum-starved with serum-free RPMI-1640 for 4 h. SMIs (10 μM in DMSO or serially diluted to specified concentrations from a 100 mM stock in DMSO) and human recombinant OSM (10 ng/mL; PeproTech; #300–10T-10UG) were incubated in serum-free RPMI-1640 medium for 1 h. After incubation, the SMI-10 analogs or SMI-10B13 and OSM were added to the serum-starved cells for 30 min. Immediately afterward, the cells were lysed using 1x PathScan Sandwich ELISA Lysis Buffer (Cell Signaling Technology; #7018S), collected, and stored at −20 °C. Lysates were analyzed for pSTAT3 levels using either the PathScan Phospho-STAT3 (Tyr705) Sandwich ELISA Antibody Pair kit (Cell Signaling Technology; #7146) or Human/Mouse Phospho-STAT3 (Y705) DuoSet IC ELISA (R&D Systems; DYC4607B), according to manufacture’s protocol. pSTAT3 expression was measured with absorbance at 450 nm and quantified by comparison relative to OSM-induced pSTAT3 levels. To calculate an IC50 for SMI-10B13, a standard curve was generated as described in the DuoSet IC ELISA datasheet to determine the concentration of pSTAT3.

[2] = system: OSM-induced pSTAT3 in MDA-MB-231 human breast cancer cells; experiment: pSTAT3 ELISA in MDA-MB-231 cells treated with OSM ± SMI; format: cell-based; settings: SMI 10 μM, OSM 10 ng/mL, 30 min
Method: as §1, with “2 High-throughput virtual screening identifies three novel compounds capable of interacting with site III of OSM. […] (F) Structure of parent SMI-10. Data are presented as mean ± SD relative to + OSM treatment, analyzed by one-way ANOVA with Tukey’s posttest *p < 0.05, **p < 0.01. To test” for “To test”

[3] = system: OSM-mediated signaling (pSTAT3, pAKT, pJNK, pERK) in T47D cells; experiment: Immunoblot of OSM-mediated signaling in T47D cells; format: cell-based, human; settings: SMI 10 μM, OSM 10 ng/mL, 30 min
Method: For immunoblot analysis, T47D breast cancer cells were treated and collected in the same manner as described above for the ELISA preparation. After lysate collection, samples were run on a 10% SDS-PAGE gel and transferred to a nitrocellulose membrane via semidry transfer. Blots were rinsed with DI H2O and allowed to completely dry at room temperature before blocking with LiCor Intercept PBS Blocking Buffer (LiCor, Lincoln, NE; Cat# 927-90001) for 1 h. After blocking, primary antibodies (1:1000) suspended in blocking buffer supplemented with 0.1% Tween were added, shaken at room temperature for 1 h, and stored at 4 °C overnight. Membranes were then washed 6 times for 5 minutes each with 1X PBS supplemented with 0.5% Tween while shaking at room temperature, and secondary antibodies (1:15,000) were applied and incubated for 1 h. Afterward, membranes were washed as previously described above and imaged at 700 nm using the LiCor Odyssey CLx Imaging System. Quantification of immunoblots was performed using the LiCor Image Studio software, normalizing to β-Actin, and calculating relative fold change compared to nontreated samples. Antibodies used included phospho-STAT3 (Y705) (Cell Signaling Technology, Danvers, MA; cat. no. 9145), phospho-AKT (S473) (Cell Signaling Technology, Danvers, MA; cat. no. 4060), phospho-JNK ([…]/[…]) (Cell Signaling Technology, Danvers, MA; cat. no. 4668), phospho-ERK (T202/Y204) (Cell Signaling Technology, Danvers, MA; cat. no. 9101), β-Actin (Cell Signaling Technology; cat. no. 3700), and donkey antirabbit IRDye 800CW (LiCor, Lincoln, NE; Cat# 925-32213).

[4] = system: T47D and MCF-7 human breast cancer cells; experiment: MTS cell viability assay; format: cell-based
Method: Cell viability was assessed using the CellTiter 96 AQueous One Solution Cell Proliferation Assay (Promega, cat. no. G3580), following the manufacturer’s instructions. Briefly, T47D and MCF-7 human breast cancer cells were seeded in 96-well plates at a density of 10,000 cells/well in 100 μL of complete growth medium and allowed to adhere overnight. Cells were then treated with a serial dilution (100 μM to 0.1 nM) of SMI-10B, SMI-10B13, Temozolomide (positive control), or vehicle (DMSO) for 24 h. Following treatment, 20 μL of MTS reagent was added directly to each well, and plates were incubated at 37 °C in a humidified incubator with 5% CO2 and imaged after 1 h of incubation. Absorbance was measured at 490 nm by using a microplate reader. Cell viability was expressed as a percentage relative to the vehicle-treated controls, and experiments were performed in triplicate.

SMILES	Kd (OSM)	Relative pSTAT3 Levels (Table 1, SMI-10A-10J) [1]	Inhibition of OSM-induced pSTAT3 via ELISA [1]	Inhibition of OSM-induced pSTAT3 via ELISA [2]	Inhibition of OSM-mediated signaling cascades by immunoblot (words) [3]	Cytotoxicity / cell viability via MTS assay [4]
O=[N+]([O-])c1c(/C=N/Nc2ccccc2)oc(-c2ccc3c(c2)OCO3)c1-c1ccc2c(c1)OCO2 [SMI-10]				effective inhibitors of OSM		
CCOC(=O)/C=C/c1cc(-c2ccc3c(c2)OCO3)c(-c2ccc3c(c2)OCO3)o1 [SMI-10D, Ethyl (E)-3-(4,5-Bis(benzo[d][1,3]dioxol-5-yl)furan-2-yl)acrylate]	20.9 ± 2.4 µM	9.0%	capable of inhibiting OSM-induced pSTAT3	capable of inhibiting OSM-induced pSTAT3	capable of inhibiting multiple cascades; also recorded: significant reductions, near nontreated levels	
Cn1nnc2c(C(N)=O)ncn2c1=O [Temozolomide, reference compound]						moderate toxicity as concentration increases

Continued, in another order:

Kd (OSM)	SMILES	Relative pSTAT3 Levels (Table 1, SMI-10A-10J) [1]	Inhibition of OSM-induced pSTAT3 via ELISA [1]	Inhibition of OSM-induced pSTAT3 via ELISA [2]	Inhibition of OSM-mediated signaling cascades by immunoblot (words) [3]	Cytotoxicity / cell viability via MTS assay [4]
32.5 ± 3.4 µM	O=C(/C=C/c1cc(-c2ccc3c(c2)OCO3)c(-c2ccc3c(c2)OCO3)o1)c1ccccc1 [SMI-10C]	11.9%	capable of inhibiting OSM-induced pSTAT3	capable of inhibiting OSM-induced pSTAT3	capable of inhibiting multiple cascades; also recorded: significant reductions, near nontreated levels	
16.8 ± 4.1 µM	c1ccc(CNCc2cc(-c3ccc4c(c3)OCO4)c(-c3ccc4c(c3)OCO4)o2)cc1 [SMI-10F, N-Benzyl-1-(4,5-bis(benzo[d][1,3]dioxol-5-yl)furan-2-yl)methanamine]	10.1%	capable of inhibiting OSM-induced pSTAT3	capable of inhibiting OSM-induced pSTAT3	capable of inhibiting multiple cascades; also recorded: significant reductions, near nontreated levels	
21.2 ± 2.7 µM	C(=N\Nc1ccccc1)/c1cc(-c2ccc3c(c2)OCO3)c(-c2ccc3c(c2)OCO3)o1 [SMI-10E, (E)-1-((4,5-Bis(benzo[d][1,3]dioxol-5-yl)furan-2-yl)methylene)-2-phenylhydrazine]	10.2%	capable of inhibiting OSM-induced pSTAT3	capable of inhibiting OSM-induced pSTAT3	capable of inhibiting multiple cascades; also recorded: significant reductions, near nontreated levels	
21.9 ± 3.5 µM	O=C(/C=C/c1ccccc1)c1cc(-c2ccc3c(c2)OCO3)c(-c2ccc3c(c2)OCO3)o1 [SMI-10G, (E)-1-(4,5-Bis(benzo[d][1,3]dioxol-5-yl)furan-2-yl)-3-phenylprop-2-en-1-one]	8.8%	capable of inhibiting OSM-induced pSTAT3	capable of inhibiting OSM-induced pSTAT3	capable of inhibiting multiple cascades; also recorded: significant reductions, near nontreated levels	
